Reference: patent US20040209270A1, “Method for identifying macrocyclic polyketides” (priority 2001, published 2004)

Tests used:
[1] = tested on: biosensor E. coli SM 101 (EBZ512, pEBZ511, pEBZ514); experiment: Luminescence measurements in the agar-plate diffusion assay with the E. coli biosensor system (luciferase reporter under mph(A) promoter / MphR(A) control); type: cell-based; settings: assay discs, 28° C., 2 to 4 hours or 15 to 24 hours, FIG. 3
Experimental: The agar-plate diffusion assay was incubated at 28° C. for 2 to 4 hours or 15 to 24 hours and luminescence was recorded using a Berthold Luminograph LB980 (FIGS. 3, 4 and 5). If luminescence is stimulated, it is detectable within a diffusion zone around the sample placed. If the sample assayed has, at the same time, an anti-bacterial activity against the sensor organism, which is noticeable as a zone of inhibition in the very preferred embodiment of the longer incubation, then the stimulation of luminescence is detectable outside this halo of inhibition in the sub-lethal concentration range.
Agar-plate diffusion assay and luminescence measurements using the E. coli biosensor system. Illustration of the selectivity of the biological sensor component. The numbers given in the information on the test substances indicate the amounts of substance applied in μg.
Agar-plate diffusion assay and luminescence measurements using the E. coli biosensor system. Exemplary illustration of the stimulation of luminescence of the biological sensor component as a function of time. The numbers given in the information on the test substances indicate the amounts of substance applied in μg.

[2] = tested on: microbial biosensor cell (E. coli biosensor system); experiment: Detection of a macrolide-(erythromycin-) producing organism in situ, agar-plate diffusion assay with the biosensor; type: cell-based; settings: assay disc or culture-covered agar blocks placed on biosensor suspension in soft agar; FIG. 5
Source text: For this purpose, the microbial biosensor cell was used in the agar-plate diffusion assay. Agar blocks were placed on the biosensor suspension embedded in soft agar. These agar blocks were covered either with Saccharopolyspora erythraea DSM 40517 described as erythromycin producer or with Streptomyces viridochromogenes DSM 40721 described as avilamycin producer. Another agar block contained no growth.
Agar-plate diffusion assay and luminescence measurements using the E. coli biosensor system. In situ stimulation of luminescence by an erythromycin-producing Saccharopolyspora erythraea culture. The number given in the information on the reference substance erythromycin indicates the amount of substance applied in μg.

Structure (SMILES)	stimulation of luminescence of the biosensor system [1]	stimulation of luminescence of the biosensor system [2]
CC[C@H]1OC(=O)[C@H](C)C(=O)[C@H](C)[C@@H](O[C@@H]2O[C@H](C)C[C@H](N(C)C)[C@H]2O)[C@@H](C)C[C@@H](C)C(=O)/C=C/[C@]1(C)O [picromycin]	indicates	
CC[C@H]1OC(=O)[C@H](C)[C@@H](O[C@H]2C[C@@](C)(OC)[C@@H](O)[C@H](C)O2)[C@H](C)[C@@H](O[C@@H]2O[C@H](C)C[C@H](N(C)C)[C@H]2O)[C@](C)(O)C[C@@H](C)CN(C)[C@H](C)[C@@H](O)[C@]1(C)O [azithromycin]	stimulated	
CO[C@@H]1[C@@H](OC(N)=O)[C@@H](O)[C@H](Oc2ccc3c(O)c(NC(=O)c4ccc(O)c(CC=C(C)C)c4)c(=O)oc3c2C)OC1(C)C [novobiocin]	do not cause a stimulation of luminescence	
CN[C@H](CC(C)C)C(=O)N[C@H]1C(=O)N[C@@H](CC(N)=O)C(=O)N[C@H]2C(=O)N[C@H]3C(=O)N[C@H](C(=O)N[C@H](C(=O)O)c4cc(O)cc(O)c4-c4cc3ccc4O)[C@H](O)c3ccc(c(Cl)c3)Oc3cc2cc(c3O[C@@H]2O[C@H](CO)[C@@H](O)[C@H](O)[C@H]2O[C@H]2C[C@](C)(N)[C@H](O)[C@H](C)O2)Oc2ccc(cc2Cl)[C@H]1O [vancomycin]	do not cause a stimulation of luminescence	
CO[C@H]1C[C@H](O[C@H]2[C@H](C)[C@@H](O[C@@H]3O[C@H](C)C[C@H](N(C)C)[C@H]3O)[C@@H](C)C[C@@]3(CO3)C(=O)[C@H](C)[C@@H](O)[C@@H](C)[C@@H](C)OC(=O)[C@@H]2C)O[C@@H](C)[C@@H]1O [oleandomycin]	indicates	
O=C(N[C@H](CO)[C@H](O)c1ccc([N+](=O)[O-])cc1)C(Cl)Cl [chloramphenicol]	do not cause a stimulation of luminescence	
CC[C@H]1OC(=O)[C@H](C)[C@@H](O[C@H]2C[C@@](C)(OC)[C@@H](O)[C@H](C)O2)[C@H](C)[C@@H](O[C@@H]2O[C@H](C)C[C@H](N(C)C)[C@H]2O)[C@](C)(O)C[C@@H](C)C(=O)[C@H](C)[C@@H](O)[C@]1(C)O [erythromycin]	indicates	stimulation of luminescence was detectable
C[C@@H]1O[C@@H]1P(=O)(O)O [fosfomycin]	do not cause a stimulation of luminescence	
CC[C@H]1OC(=O)[C@H](C)C(=O)[C@H](C)[C@@H](O[C@@H]2O[C@H](C)C[C@H](N(C)C)[C@H]2O)[C@@H](C)C[C@@H](C)C(=O)/C=C/[C@H]1C [narbomycin]	indicates	
CC[C@H]1OC(=O)[C@H](C)[C@@H](O[C@@H]2O[C@H](C)C[C@H](N(C)C)[C@H]2O)[C@@H](C)C[C@@H](C)C(=O)/C=C/[C@]1(C)O [methymycin]	stimulated	
CC[C@H]1OC(=O)[C@H](C)[C@@H](O[C@H]2C[C@@](C)(OC)[C@@H](O)[C@H](C)O2)[C@H](C)[C@@H](O[C@@H]2O[C@H](C)C[C@H](N(C)C)[C@H]2O)[C@](C)(OC)C[C@@H](C)C(=O)[C@H](C)[C@@H](O)[C@]1(C)O [clarithromycin]	indicates	
